Source: patent publication US20220204473A1, “COMPOUND AS IRAK INHIBITOR” (SHANGHAI MEIYUE BIOTECH DEVELOPMENT CO., LTD., priority 2018, published 2022)
pIC50: −log10 of the molar value.

Experiments:
[1] = Stability in rat liver microsomes; assay type: in vitro ADME; conditions: pH 7.4, ∞ = no obvious metabolism found during assay, read-out: Stability test in liver microsomes t1/2, Rat
Method: (§1) 1. Preparation of buffer C:
(§2) Buffer A: 1.0 L of 0.1 M monopotassium phosphate buffer (containing 1.0 mM EDTA);
(§3) Buffer A: 1.0 L of 0.1 M dipotassium phosphate buffer (containing 1.0 mM EDTA);
(§4) Buffer C: Buffer A was added to 700 mL of buffer B until pH reached 7.4.
(§5) The test compound and the reference were separately dissolved in DMSO to give 10 mM stocks.
(§6) 500 μM solution: 10 μL of 10 mM stock solution was added to 190 μL of acetonitrile;
(§7) 1.5 μM dosing solution (in liver microsome solution):
(§8) 18.75 μL of 20 mg/mL liver microsomes were added to 479.75 μL of buffer C, followed by 1.5 μL of 500 μM solution. The mixture was gently shaken to mix well.
(§9) NADPH was weighed, to which an appropriate amount of buffer C was added to prepare a 6 mM NADPH solution.
(§10) 5. 30 μL of 1.5 μM dosing solution was added to wells of a 96-well plate set for different time points (0 min, 5 min, 15 min, 30 min, 45 min) in duplicate.
(§11) 6. Preparation of 0 min samples: 135 μL of acetonitrile (containing internal standard) was added to the 0 min wells, followed by 15 μL of 6 mM NADPH solution.
(§12) 7. The 96-well plate containing 1.5 μM dosing solution and NADPH solution were preheated for 5 min in a water bath at 37° C.
(§13) 8. 15 μL of pre-heated 6 mM NADPH solution was added to wells set for 5 min, 15 min, 30 min and 45 min to start the reaction.
(§14) 9. At time points of 5 min, 15 min, 30 min and 45 min, the reaction was terminated by adding 135 μL of acetonitrile (containing internal standard). The mixtures were vortexed for 10 min and centrifuged at 5594×g for 15 min (Thermo Multifuge×3R).
(§15) 10. 50 μL of the supernatant was transferred to wells of a 96-well plate containing 50 μL of water. The samples were mixed and finally subjected to LC-MS/MS analysis.

human IRAK4 = biological target: T1, human IRAK4 (Homo sapiens, UniProt Q9NWZ3); experiment: IRAK4 MSA (Mobility-Shift Assay) at Km ATP; assay type: biochemical; conditions: GST-IRAK4 1 nM, ATP 37 μM (Km); read-out: IC50 for inhibiting human IRAK4 kinase
T1 construct: purchased Cama (so in the source)
T1 sequence (Q9NWZ3 1-460): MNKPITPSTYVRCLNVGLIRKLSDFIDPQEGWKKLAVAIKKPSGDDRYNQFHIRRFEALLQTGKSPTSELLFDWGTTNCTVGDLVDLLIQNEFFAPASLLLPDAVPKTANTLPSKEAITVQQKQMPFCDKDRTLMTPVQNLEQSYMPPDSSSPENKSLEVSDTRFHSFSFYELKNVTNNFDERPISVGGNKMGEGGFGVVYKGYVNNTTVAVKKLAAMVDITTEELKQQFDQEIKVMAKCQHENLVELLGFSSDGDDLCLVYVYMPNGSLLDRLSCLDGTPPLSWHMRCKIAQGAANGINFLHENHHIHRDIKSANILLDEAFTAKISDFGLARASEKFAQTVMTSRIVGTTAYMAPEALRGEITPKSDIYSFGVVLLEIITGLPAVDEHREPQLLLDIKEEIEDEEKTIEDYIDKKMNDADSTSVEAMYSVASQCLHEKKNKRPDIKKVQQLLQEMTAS
Method: A recombinant fusion protein of N-terminal GST (glutathione-S-transferase) and human IRAK4 was used as enzyme (GST-IRAK4, kinase IRAK4 (Cama)) at a final concentration of 1 nM; ATP (Sigma) was at a final concentration of 37 μM; the substrates used for the kinase reaction were a 5-FAM (5-carboxyfluorescein)-labeled polypeptide (5-FAM-[…]-COOH) and a substrate peptide FAM-P8 (GL Biochem) at final concentrations of […].
In this assay, 500 μM solutions of the compounds were prepared in 100% DMSO, and serially 4-fold diluted to the 10th concentration gradient with 100% DMSO, followed by a 10-fold dilution in the compound buffer (50 mM HEPES. pH 7.5, 0.00015% Brij-35) to give intermediate dilutions of the compounds at a final concentration of 10 μM-0.04 nM containing 10% DMSO respectively, 5 μL of the dilutions were transferred into a black 384-well plate respectively.
IRAK4 was diluted to 2.5 nM in the kinase buffer (50 mM HEPES, pH 7.5, 0.00015% Brij-35, 2 mM DTT). 10 μL of the IRAK4 dilution was transferred to the 384-well plate and co-incubated with the compound for 10-15 min.
The substrate and ATP were diluted to 12.5 μM and 92.5 μM with reaction buffer (50 mM HEPES, pH 7.5, 0.00015% Brij-35, 10 mM MgCl2), respectively. 10 μL of the dilutions were transferred to a 384-well plate and incubated at 28° C. for 1 h respectively. The reaction was terminated by adding 25 μL of 50 mM EDTA to the 384-well plate.
The inhibition rates of IRAK4 by the compounds were calculated by measuring the rate of phosphorylated substrate using a Caliper EZ Reader (PerkinElmer) and the IC50 values were calculated by XL-fit software.

[2] = Stability in human liver microsomes; assay type: in vitro ADME; conditions: ∞ = no obvious metabolism found during assay
Method: as §1, §2, §3, §4, §5, §6, §7, §8, §9, §10, §11, §12, §13, §14, §15

[3] = Stability in mouse liver microsomes; assay type: in vitro ADME; conditions: ∞ = no obvious metabolism found during assay
Method: as §1, §2, §3, §4, §5, §6, §7, §8, §9, §10, §11, §12, §13, §14, §15

[4] = test system: TNF-α release in LPS-induced Balb/c female mice; experiment: Inhibition of TNF-α release in LPS-induced Balb/c female mice; assay type: in vivo, mouse; design: concentration or dose not given beside the values; conditions: oral gavage 5 h before LPS induction, serum 1.5 h after stimulation
Method: In the normal control groups, the animals received an intraperitoneal injection of normal saline (10 mL/kg) and in the model groups, the animals received LPS stimulation (Sigma CAT #L2630, i.p., 10 mL/kg, 0.2 mg/kg). During the assay, to the test compounds, DMSO, Solutol and 10 mM PBS were sequentially added to prepare a solution or suspension of required concentration for administration. For the vehicle, DMSO, Solutol and 10 mM PBS were mixed in a volume ratio of 5:15:80. In each of the groups, the animals were administered through oral gavage (10 mL/kg) 5 h before LPS (or saline) stimulation at predetermined doses, and euthanized with CO2 at 1.5 h after the stimulation for cardiac blood collection. The whole blood was not anticoagulated, incubated in wet ice for 1.5 h, and centrifuged at 2000×g at 4° C. for 10 min to separate the serum. The serum was frozen at −80° C. for TNF-α assay. Quantification of the TNF-α was done with TNF-α ELISA kit according to the manufacturer's instruction.

[5] = test system: IL-6 release in LPS-induced Balb/c female mice; experiment: Inhibition of IL-6 release in LPS-induced Balb/c female mice; assay type: in vivo, mouse; design: concentration or dose not given beside the values; conditions: administered 5 h before LPS induction, serum
Method: Objective of the test: To determine the inhibitory effect of the compounds by measuring the plasma IL-6 concentration in a Balb/c mouse model with LPS-induced inflammation.
2.1 Prepared mouse serum samples (sample batch no. 20181218)
4.1 Reagent kit was equilibrated at room temperature (25-28° C.) for 20 min. After each detection, the remaining reagents were stored at 4° C.
4.3 Preparing reference standard: 1 vial of reference standard substance was added with labeled volume of reference standard diluent. The mixtures were incubated for 15 min at room temperature. Then the mixtures were gently mixed to completely dissolve the substance to prepare a reference standard stock at a final concentration of 1000 μg/mL.
4.4 Dilution of samples: The sample in each group was diluted by […], i.e., a 2-fold dilution with sample assay buffer followed by another two-fold dilution with standard diluent.
4.5 The diluted samples or standards of different concentrations were added into corresponding wells at 100 μL/well respectively, and a background correcting well (or a blank well) was set by adding only TMB buffer and terminating solution. The wells were sealed with a transparent film and incubated at room temperature for 120 min.
4.6 The plate was subjected to 5 washes, each with 300 μL of washing buffer for 15-30 sec. The plate was dried on thick absorbent paper after the last wash.
4.7 Biotinylated antibody was added at 100 μL/well (Note: the biotinylated antibody was prepared in advance and could be used directly without further dilution). The wells were sealed with a transparent film and incubated at room temperature for 60 min.
4.8 The plate was subjected to 5 washes, each with 300 μL of washing buffer for 15-30 sec. The plate was dried on thick absorbent paper after the last wash.
4.9 Horseradish peroxidase-labeled streptavidin was added at 100 μL/well. The wells were sealed with a white film and incubated away from light at room temperature for 20 min.
4.10 The plate was subjected to 5 washes, each with 300 μL of washing buffer for 15-30 sec. The plate was dried on thick absorbent paper after the last wash.
4.11 The chromogenic reagent TMB was added 100 μL/well. The wells were sealed with a white film and incubated away from light at room temperature for 20 min.
4.12 The terminating solution was added at 50 μL/well and A450 value was measured right after mixing.

CYP2C19 = biological target: T2, CYP2C19 (Homo sapiens, UniProt P33261); experiment: CYP450 inhibition in human liver microsomes, CYP2C19; assay type: in vitro ADME
T2 construct: tissue Corning (USA); host or cells: mixed human liver microsomes
Method: (§16) This study was intended to investigate the inhibitory effect of the test compounds on five major CYP450 enzyme subtypes CYP1A2, 2C9, 2C19, 2D6 and 3A4 in human liver microsomes. The mixed human liver microsomes used in this assay were purchased from Corning (USA). The test compounds were co-incubated at 7 concentrations with human liver microsomes and five probe substrates (phenacetin for CYP1a2, diclofenac for CYP2C9, mephenytoin for CYP2C19, dextromethorphan for CYP2D6, midazolam for CYP3A4-M, mixed). The reaction was initiated by adding coenzyme NADPH, and terminated by adding acetonitrile containing internal standard. After the proteins were precipitated, the supernatant was centrifuged. The characteristic metabolites in the supernatant (acetaminophen for CYP1A2, 4-hydroxydiclofenac for CYP2C9, 4-hydroxymephenytoin for CYP2C19, dextrorphan for CYP2D6, 1-hydroxymidazolam for CYP3A4-M) were analyzed by LC-MS/MS. The influence of the test compounds on production of the characteristic metabolites was finally analyzed on the basis of the data obtained. A selective inhibitor (ketoconazole for CYP3A4-M) was used as positive control. All samples were tested in duplicate.

CYP2C9 = biological target: T3, CYP2C9 (Homo sapiens, UniProt P11712); experiment: CYP450 inhibition in human liver microsomes, CYP2C9; assay type: in vitro ADME
T3 construct: tissue Corning (USA); host or cells: mixed human liver microsomes
Method: as §16

CYP2D6 = biological target: T4, CYP2D6 (Homo sapiens, UniProt P10635); experiment: CYP450 inhibition in human liver microsomes, CYP2D6; assay type: in vitro ADME
T4 construct: tissue Corning (USA); host or cells: mixed human liver microsomes
Method: as §16

CYP3A4 = biological target: T5, CYP3A4 (Homo sapiens, UniProt P08684); experiment: CYP450 inhibition in human liver microsomes, CYP3A4; assay type: in vitro ADME
T5 construct: tissue Corning (USA); host or cells: mixed human liver microsomes
Method: as §16

CYP1A2 = biological target: T6, CYP1A2 (Homo sapiens, UniProt P05177); experiment: CYP450 inhibition in human liver microsomes, CYP1A2; assay type: in vitro ADME
T6 construct: tissue Corning (USA); host or cells: mixed human liver microsomes
T6 sequence (P05177 1-516): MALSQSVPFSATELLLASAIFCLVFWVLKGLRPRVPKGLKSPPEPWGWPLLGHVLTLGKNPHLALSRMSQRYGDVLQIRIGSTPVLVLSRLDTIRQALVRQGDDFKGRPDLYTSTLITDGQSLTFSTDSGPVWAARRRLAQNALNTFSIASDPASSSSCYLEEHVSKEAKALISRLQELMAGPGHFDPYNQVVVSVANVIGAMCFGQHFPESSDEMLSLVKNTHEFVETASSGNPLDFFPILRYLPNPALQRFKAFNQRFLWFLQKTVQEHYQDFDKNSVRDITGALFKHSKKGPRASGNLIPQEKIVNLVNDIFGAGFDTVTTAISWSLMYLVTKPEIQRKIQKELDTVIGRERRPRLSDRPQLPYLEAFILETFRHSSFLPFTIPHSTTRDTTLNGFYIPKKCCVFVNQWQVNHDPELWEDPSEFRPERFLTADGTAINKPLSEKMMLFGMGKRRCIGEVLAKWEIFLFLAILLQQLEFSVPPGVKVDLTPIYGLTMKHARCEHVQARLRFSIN
Method: as §16

T3 sequence (P11712 whole entry): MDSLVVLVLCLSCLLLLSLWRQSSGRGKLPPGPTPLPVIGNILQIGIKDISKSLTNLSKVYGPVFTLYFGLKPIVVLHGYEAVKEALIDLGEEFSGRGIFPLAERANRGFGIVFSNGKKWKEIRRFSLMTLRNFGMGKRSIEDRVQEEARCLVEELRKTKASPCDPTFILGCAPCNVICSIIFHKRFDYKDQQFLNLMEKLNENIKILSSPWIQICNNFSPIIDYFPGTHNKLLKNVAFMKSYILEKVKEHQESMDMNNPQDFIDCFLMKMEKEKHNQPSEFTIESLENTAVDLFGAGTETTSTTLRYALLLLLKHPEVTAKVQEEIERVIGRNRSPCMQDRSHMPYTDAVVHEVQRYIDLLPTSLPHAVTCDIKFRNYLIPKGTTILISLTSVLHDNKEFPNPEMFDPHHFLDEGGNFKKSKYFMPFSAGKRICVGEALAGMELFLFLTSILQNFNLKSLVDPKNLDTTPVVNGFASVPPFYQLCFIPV
T2 sequence (P33261 whole entry): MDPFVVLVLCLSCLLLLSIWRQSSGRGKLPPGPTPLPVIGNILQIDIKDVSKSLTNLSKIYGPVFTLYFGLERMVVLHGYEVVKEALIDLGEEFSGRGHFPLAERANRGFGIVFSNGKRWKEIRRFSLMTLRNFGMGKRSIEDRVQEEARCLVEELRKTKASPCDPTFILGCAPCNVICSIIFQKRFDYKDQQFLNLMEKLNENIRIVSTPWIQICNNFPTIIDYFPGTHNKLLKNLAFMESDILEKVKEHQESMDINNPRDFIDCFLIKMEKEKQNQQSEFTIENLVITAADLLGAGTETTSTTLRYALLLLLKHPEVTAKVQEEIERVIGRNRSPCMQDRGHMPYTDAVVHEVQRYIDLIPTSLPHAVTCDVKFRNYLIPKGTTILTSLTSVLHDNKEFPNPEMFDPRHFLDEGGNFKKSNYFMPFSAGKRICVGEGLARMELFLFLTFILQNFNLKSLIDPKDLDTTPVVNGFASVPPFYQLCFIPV
T5 sequence (P08684 whole entry): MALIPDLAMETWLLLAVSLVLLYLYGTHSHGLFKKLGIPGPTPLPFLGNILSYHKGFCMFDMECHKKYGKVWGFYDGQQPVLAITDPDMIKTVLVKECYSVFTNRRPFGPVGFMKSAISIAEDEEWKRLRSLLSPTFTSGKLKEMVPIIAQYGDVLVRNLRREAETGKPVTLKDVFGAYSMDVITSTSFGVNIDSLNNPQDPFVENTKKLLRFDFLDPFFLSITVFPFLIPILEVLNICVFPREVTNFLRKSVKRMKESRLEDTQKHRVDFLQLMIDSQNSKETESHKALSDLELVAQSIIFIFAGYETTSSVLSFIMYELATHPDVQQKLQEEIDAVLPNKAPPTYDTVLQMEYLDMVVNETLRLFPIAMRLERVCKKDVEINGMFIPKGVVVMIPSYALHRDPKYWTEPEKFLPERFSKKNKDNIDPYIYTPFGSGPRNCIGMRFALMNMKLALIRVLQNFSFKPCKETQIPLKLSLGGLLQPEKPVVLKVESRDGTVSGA
T4 sequence (P10635 whole entry): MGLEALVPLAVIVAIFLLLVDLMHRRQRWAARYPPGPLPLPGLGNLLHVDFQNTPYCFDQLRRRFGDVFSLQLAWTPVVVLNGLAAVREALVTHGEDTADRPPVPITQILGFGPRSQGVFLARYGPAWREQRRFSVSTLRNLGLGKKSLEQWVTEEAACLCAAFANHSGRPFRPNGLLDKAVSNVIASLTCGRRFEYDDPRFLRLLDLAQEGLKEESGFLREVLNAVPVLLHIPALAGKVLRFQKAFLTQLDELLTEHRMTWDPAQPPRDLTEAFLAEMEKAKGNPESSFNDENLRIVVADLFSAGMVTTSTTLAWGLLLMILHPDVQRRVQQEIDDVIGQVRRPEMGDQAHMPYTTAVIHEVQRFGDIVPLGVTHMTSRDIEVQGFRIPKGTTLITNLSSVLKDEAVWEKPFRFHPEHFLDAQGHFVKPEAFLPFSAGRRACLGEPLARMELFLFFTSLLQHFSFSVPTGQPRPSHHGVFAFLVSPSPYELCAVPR

Row | SMILES | half-life at 1 μM [1] | pIC50 (human IRAK4) | Stability test in liver microsomes t1/2, Human [2] | Stability test in liver microsomes t1/2, Mouse [3] | Inhibition rate of TNF-α [4] | Inhibition rate of IL-6 [5] | pIC50 (CYP2C19) | pIC50 (CYP2C9) | pIC50 (CYP2D6) | pIC50 (CYP3A4) | pIC50 (CYP1A2)
1 | CC(C)(O)[C@H]1C[C@H](n2cc3cc(NC(=O)c4cccc(C(F)(F)F)n4)c(-n4cccn4)cc3n2)C1 [MY-004-144] | 11.4 h | 8.36 | ∞ | ∞ |  |  |  |  |  |  | 
2 | COc1cc2nn([C@H]3C[C@H](C(C)(C)O)C3)cc2cc1NC(=O)c1cnn2cccnc12 [MY-004-075] |  | 8.44 |  |  | 90.15% | 96.88% |  |  |  |  | 
3 | CC(C)(O)CCn1cc2cc(NC(=O)c3cccc(C(F)(F)F)n3)c(C(C)(C)O)cc2n1 [MYA, reference compound] |  |  |  |  |  |  | 4.63 | 4.72 | < 4.52 | < 4.52 | 5.54
